Data from patent US20260027116A1, “Methods of Treating Chronic Graft-Versus-Host Disease Following Allogeneic Hematopoietic Stem Cell Transplantation” (Kadmon Corporation, LLC, priority 2022, published 2026).

Test system: patients with cGVHD
Settings: Cohort 2 200 mg BID
Method: All responses were assessed by the investigators.
Reported Adverse Events. […] All-cause mortality data collected during the study were assessed for all enrolled participants. Disease progression related death was not reported as AE.
Number of Participants With Treatment-emergent Adverse Events (TEAEs), and Treatment-emergent Serious Adverse Events (TESAEs). […] TEAEs included both SAEs and non-SAEs. […] Analysis was performed on safety population which included all participants who received at least 1 dose of study medication.

CC(C)NC(=O)COc1cccc(-c2nc(Nc3ccc4[nH]ncc4c3)c3ccccc3n2)c1 [Belumosudil, 2-{3-[4-(1H-indazol-5-ylamino)-2-quinazolinyl]phenoxy}-N-(propan-2-yl) acetamide]
Macular degeneration: Affected/At Risk (%): 1/16 (6.25%) | Migraine: # Events: 1 | Migraine: Affected/At Risk (%): 1/16 (6.25%) | Muscle spasms: # Events: 0 | Muscle spasms: Affected/At Risk (%): 0/16 (0%) | Muscle spasticity: # Events: 0 | Muscle spasticity: Affected/At Risk (%): 0/16 (0%) | Muscular weakness: # Events: 1 | Muscular weakness: Affected/At Risk (%): 1/16 (6.25%) | Musculoskeletal chest pain: # Events: 0 | Musculoskeletal chest pain: Affected/At Risk (%): 0/16 (0%) | Myalgia: # Events: 1 | Myalgia: Affected/At Risk (%): 1/16 (6.25%) | Nail disorder: # Events: 0 | Nail disorder: Affected/At Risk (%): 0/16 (0%) | Nasal congestion: Affected/At Risk (%): 0/16 (0%) | Nausea: # Events: 6 | Nausea: Affected/At Risk (%): 4/16 (25%) | Neck pain: # Events: 0 | Neck pain: Affected/At Risk (%): 0/16 (0%) | Nephrotic syndrome: # Events: 1 | Nephrotic syndrome: Affected/At Risk (%): 1/16 (6.25%) | Neuropathy peripheral: # Events: 1 | Neuropathy peripheral: Affected/At Risk (%): 1/16 (6.25%) | Neutrophil count decreased: # Events: 0 | Neutrophil count decreased: Affected/At Risk (%): 0/16 (0%) | Nocturia: # Events: 0 | Nocturia: Affected/At Risk (%): 0/16 (0%) | Non-cardiac chest pain: # Events: 3 | Non-cardiac chest pain: Affected/At Risk (%): 3/16 (18.75%) | Obesity: # Events: 0 | Obesity: Affected/At Risk (%): 0/16 (0%) | Oedema peripheral: # Events: 5 | Oedema peripheral: Affected/At Risk (%): 4/16 (25%) | Oedema: # Events: 1 | Oedema: Affected/At Risk (%): 1/16 (6.25%) | Oesophageal ulcer: # Events: 1 | Oesophageal ulcer: Affected/At Risk (%): 1/16 (6.25%) | Oral candidiasis: # Events: 1 | Oral candidiasis: Affected/At Risk (%): 1/16 (6.25%) | Oropharyngeal pain: # Events: 0 | Oropharyngeal pain: Affected/At Risk (%): 0/16 (0%) | Orthopnoea: # Events: 0 | Orthopnoea: Affected/At Risk (%): 0/16 (0%) | Osteonecrosis: # Events: 0 | Osteonecrosis: Affected/At Risk (%): 0/16 (0%) | Osteopenia: # Events: 1 | Osteopenia: Affected/At Risk (%): 1/16 (6.25%) | Osteoporosis: # Events: 1 | Osteoporosis: Affected/At Risk (%): 1/16 (6.25%) | Overdose: # Events: 0 | Overdose: Affected/At Risk (%): 0/16 (0%) | Pain in extremity: # Events: 3 | Pain in extremity: Affected/At Risk (%): 2/16 (12.5%) | Pain: # Events: 0 | Pain: Affected/At Risk (%): 0/16 (0%) | Palpitations: # Events: 0 | Palpitations: Affected/At Risk (%): 0/16 (0%) | Paraesthesia: # Events: 1 | Paraesthesia: Affected/At Risk (%): 1/16 (6.25%) | Pericardial effusion: # Events: 0 | Pericardial effusion: Affected/At Risk (%): 0/16 (0%) | Peripheral coldness: # Events: 0 | Peripheral coldness: Affected/At Risk (%): 0/16 (0%) | Peripheral sensory neuropathy: # Events: 1 | Peripheral sensory neuropathy: Affected/At Risk (%): 1/16 (6.25%) | Phlebitis: # Events: 1 | Phlebitis: Affected/At Risk (%): 1/16 (6.25%) | Photophobia: # Events: 1 | Photophobia: Affected/At Risk (%): 1/16 (6.25%) | Platelet count decreased: # Events: 0 | Platelet count decreased: Affected/At Risk (%): 0/16 (0%) | Pleural effusion: # Events: 0 | Pleural effusion: Affected/At Risk (%): 0/16 (0%) | Pneumonia respiratory syncytial viral: # Events: 1 | Pneumonia respiratory syncytial viral: Affected/At Risk (%): 1/16 (6.25%) | Pneumonia: # Events: 3 | Pneumonia: Affected/At Risk (%): 3/16 (18.75%) | Pollakiuria: # Events: 0 | Pollakiuria: Affected/At Risk (%): 0/16 (0%) | Presyncope: # Events: 3 | Presyncope: Affected/At Risk (%): 3/16 (18.75%) | Productive cough: # Events: 7 | Productive cough: Affected/At Risk (%): 2/16 (12.5%) | Proteinuria: # Events: 1 | Proteinuria: Affected/At Risk (%): 1/16 (6.25%) | Pruritus: # Events: 4 | Pruritus: Affected/At Risk (%): 2/16 (12.5%) | Pseudomonas infection: # Events: 2 | Pseudomonas infection: Affected/At Risk (%): 1/16 (6.25%) | Pulmonary mass: # Events: 1 | Pulmonary mass: Affected/At Risk (%): 1/16 (6.25%) | Pyrexia: # Events: 6 | Pyrexia: Affected/At Risk (%): 3/16 (18.75%) | Rash erythematous: # Events: 1 | Rash erythematous: Affected/At Risk (%): 1/16 (6.25%) | Rash maculo-papular: # Events: 0 | Rash maculo-papular: Affected/At Risk (%): 0/16 (0%) | Rash pustular: # Events: 1 | Rash pustular: Affected/At Risk (%): 1/16 (6.25%) | Rash: # Events: 1 | Rash: Affected/At Risk (%): 1/16 (6.25%) | Red blood cells urine positive: # Events: 1 | Red blood cells urine positive: Affected/At Risk (%): 1/16 (6.25%) | Renal failure: # Events: 1 | Renal failure: Affected/At Risk (%): 1/16 (6.25%) | Respiratory syncytial virus infection: # Events: 1 | Respiratory syncytial virus infection: Affected/At Risk (%): 1/16 (6.25%) | Respiratory tract infection fungal: # Events: 0 | Respiratory tract infection fungal: Affected/At Risk (%): 0/16 (0%) | Respiratory tract infection: # Events: 0 | Respiratory tract infection: Affected/At Risk (%): 0/16 (0%) | Restless legs syndrome: # Events: 1 | Restless legs syndrome: Affected/At Risk (%): 1/16 (6.25%) | Rosacea: # Events: 1 | Rosacea: Affected/At Risk (%): 1/16 (6.25%) | SAE, No. (%): 6 (38) | Sinus pain: # Events: 0 | Sinus pain: Affected/At Risk (%): 0/16 (0%) | Sinusitis: # Events: 4 | Sinusitis: Affected/At Risk (%): 2/16 (12.5%) | Skin abrasion: # Events: 0 | Skin abrasion: Affected/At Risk (%): 0/16 (0%) | Skin lesion: # Events: 1 | Skin lesion: Affected/At Risk (%): 1/16 (6.25%) | Skin papilloma: # Events: 0 | Skin papilloma: Affected/At Risk (%): 0/16 (0%) | Spinal compression fracture: # Events: 0 | Spinal compression fracture: Affected/At Risk (%): 0/16 (0%) | Squamous cell carcinoma of skin: # Events: 2 | Squamous cell carcinoma of skin: Affected/At Risk (%): 2/16 (12.5%) | Stomatitis: # Events: 1 | Stomatitis: Affected/At Risk (%): 1/16 (6.25%) | Superior vena cava syndrome: # Events: 2 | Superior vena cava syndrome: Affected/At Risk (%): 1/16 (6.25%) | TEAE, participants (%): 16 (100%) participants | TESAE, participants (%): 6 (38%) participants | Tachycardia: # Events: 0 | Tachycardia: Affected/At Risk (%): 0/16 (0%) | Tendonitis: # Events: 1 | Tendonitis: Affected/At Risk (%): 1/16 (6.25%) | Testicular pain: # Events: 0 | Testicular pain: Affected/At Risk (%): 0/16 (0%) | Testicular swelling: # Events: 0 | Testicular swelling: Affected/At Risk (%): 0/16 (0%) | Thoracic spinal stenosis: # Events: 0 | Thoracic spinal stenosis: Affected/At Risk (%): 0/16 (0%) | Thrombocytopenia: # Events: 1 | Thrombocytopenia: Affected/At Risk (%): 1/16 (6.25%) | Thrombocytosis: # Events: 0 | Thrombocytosis: Affected/At Risk (%): 0/16 (0%) | Tinea pedis: # Events: 1 | Tinea pedis: Affected/At Risk (%): 1/16 (6.25%) | Tooth fracture: # Events: 1 | Tooth fracture: Affected/At Risk (%): 1/16 (6.25%) | Total other adverse events: Affected/At Risk (%): 16/16 (100%) | Transfusion reaction: # Events: 0 | Transfusion reaction: Affected/At Risk (%): 0/16 (0%) | Tremor: # Events: 2 | Tremor: Affected/At Risk (%): 1/16 (6.25%) | Type 2 diabetes mellitus: # Events: 0 | Type 2 diabetes mellitus: Affected/At Risk (%): 0/16 (0%) | Ulcerative keratitis: # Events: 1 | Ulcerative keratitis: Affected/At Risk (%): 1/16 (6.25%) | Upper respiratory tract infection: # Events: 13 | Upper respiratory tract infection: Affected/At Risk (%): 9/16 (56.25%) | Upper-airway cough syndrome: # Events: 2 | Upper-airway cough syndrome: Affected/At Risk (%): 2/16 (12.5%) | Urinary retention: # Events: 2
